Data set [1] deals with S. aureus, B. cereus, M. flavus, P. aeruginosa, E. coli, and E. cloacae. The conditions noted are these: all mentioned strains; cited from earlier work.
The nature of data set [2]: CUPRAC assay (cupric-reducing antioxidant capacity). It counts as biochemical. The conditions noted are these: concentration of 50 μM, methanolic solutions. How it is done: CUPRAC assay was carried out according to the method described in [44]. First, […] of CuCl2 (C = 10 mM; in water) was mixed with […] of ammonium acetate (pH 7; in water) and neocuproine (C = 75 mM; in ethanol). […] The samples were mixed and incubated for 60 min at room temperature (23 °C). The absorbance of the samples was measured with a UV–Vis spectrophotometer at λ = 450 nm against a blank (containing 0.5 mL of methanol instead of the sample). […] R^2 = 0.9919).

The conditions of data set [3]: cited from earlier work.
In data set [4] the test system is E. coli, P. aeruginosa, S. aureus, B. subtilis, S. enteritidis, and C. albicans. As to the kind of experiment: MIC, stated for all tested strains together. It counts as cell-based. The conditions noted are these: all of the tested strains. How it is done: The following bacterial strains were used in this study: Escherichia coli (PCM 2857), Pseudomonas aeruginosa (PCM 2720), Bacillus subtilis (PCM 2850), Staphylococcus aureus (PCM 2267), Salmonella enteritidis (NCTC 4776), and Candida albicans (PCM 2566-FY). The microbial strains were bought from the Polish Collection of Microorganisms (Wroclaw, Poland) or the American Type Culture Collection. Bacteria (0.1 mL of the reconstituted suspension) were seeded onto sterile Mueller–Hinton agar plates (Biomaxima), to which previously suitable amounts of the tested compounds were added to give the desired concentration.
The MIC (minimal inhibitory concentration) was determined by serial dilution of the tested compound in an agar medium, to which the appropriate inoculum of microorganisms was then added and incubated. Escherichia coli, Pseudomonas aeruginosa, Staphylococcus aureus, Bacillus subtilis, Salmonella enteritidis, and Candida albicans were grown overnight and then resuspended in physiological saline to an optical density at 600 nm (OD = 600) of 0.60, corresponding to 5.0 × 10^8 CFU/mL. Bacteria (0.1 mL of the reconstituted suspension) were seeded onto sterile Mueller–Hinton agar plates, to which previously suitable amounts of the tested compounds were added to reach the desired concentration. Tested chemicals were dissolved in DMSO solution. Negative controls were agar plates, to which DMSO was added, while positive controls were plates with gentamycin (in the case of bacteria) or flucanozole (in the case of fungi). The plates were incubated at 37 °C for 24 h. The lowest concentration without visible bacterial growth was determined as the MIC.

Data set [5] can be described thus: Pro-oxidant activity, Trolox oxidation assay. It counts as biochemical. Conditions: after 120 min of incubation, concentrations of 35 μM. How it is done:
The pro-oxidant activity was expressed as the rate of Trolox oxidation according to the protocol described in [45]. First, a mixture of 0.5 mL of Trolox (C = 0.4 mM; in water) with 0.5 mL of H2O2 (C = 0.2 mM; in water), 0.5 mL of HRP (C = 0.04 μM; in phosphate buffer; pH = 7), 5 μL of the tested compounds (C = 50 μM; in methanol), and […] of distilled water was prepared as the tested sample. […] The control contained methanol instead of the tested substance.

Data set [6] concerns HepG2 hepatocellular carcinoma cells. Conditions: 100 µM, incubation time: 4 days; cited from earlier work.
The conditions of data set [7]: cited from earlier work; for inhibition: read-out: DPPH radical scavenging activity (%). On the technique in general: DPPH is a stable violet radical that fades when it is reduced.
For data set [8] the following is noted: cited from earlier work. This is another data set of the same source.
Data set [9] in a line: Lipophilicity via RP-HPLC. It counts as physicochemical. On the procedure:
The analyses were carried out on the following chromatographic columns: RP-18e Purospher STAR (C18), 150 mm × 4.0 mm, 5 µm, (Merck, Darmstadt, Germany); RP-8e Purospher STAR (C8), 150 mm × 4.6 mm, 5 µm, (Merck, Darmstadt, Germany); Zorbax Eclipse XDB-CN (CN), 150 mm × 4.6 mm, 5 µm, (Agilent Technologies, Santa Clara, CA, USA); Nucleosil Phenyl (PHE), 250 mm × 4.6 mm, 7 µm, (Supelco, Bellefonte, PA, USA); and Regis Rexchrom IAM.PC.DD.2 (IAM), 100 mm × 4.6 mm, 10 µm, (Regis Technologies Inc., Morton Grave, IL, USA). The experimental conditions and the calculations were as described in [46].

The test system of data set [10] is Botrytis cinerea and Rhizopus stolonifer. Conditions: concentration of 5 mM; cited from earlier work.
Data set [11] has as its system MDA-MB-231 cells. More on the design: method as in PMID 31746356. Conditions: incubated for 48 h; cited from earlier work.
Data set [12] has as its system E. coli, B. aureus, and L. monocytogenes. More on the design: method as in doi:10.17221/132/2010-CJFS. The conditions noted are these: ref 90; cited from earlier work.
Another data set relates to A2780 cancer cells. Conditions: incubation time: two days; cited from earlier work.
Data set [13] concerns MDA-MB-231 cells. Also on record: method as in PMID 30211078. Conditions: in 24 h; read-out: IC50, growth of MDA-MB-231 cells; cited from earlier work.
For a further data set, the system named is MCF-7. Conditions: incubation time: 24 h, cited from earlier work.
Where [14] appears, read: C = 10 μM, CDPPH = 100 μM, t = 30 min.
[15] abbreviates: C = 15 μM, CDPPH = 60 μM, t = 30 min.
Setting [16] is: CDPPH = 60 μM, t = 30 min, read-out: DPPH, IC50.
Where [17] appears, read: CDPPH = 1 mM, t = 20 min, read-out: DPPH, IC50.
[18] abbreviates: C = 0,001 mg/mL, λ = 593 nm, t = 30 min.
Setting [19] is: CDPPH = 90 μM, t = 30 min, read-out: DPPH, IC50.

Consider five compounds from paper PMC8466373, “Plant-Derived and Dietary Hydroxybenzoic Acids—A Comprehensive Study of Structural, Anti-/Pro-Oxidant, Lipophilic, Antimicrobial, and Cytotoxic Activity in MDA-MB-231 and MCF-7 Cell Lines” (Nutrients, 2021).

In brackets after ≈: the same amount, converted by molar mass. Where two headings read alike, the source gives them in different places.

As for `O=C(O)c1ccc(O)c(O)c1` [3,4-DHB, 3,4-dihydroxybenzoic acid], the MIC (commonly the lowest concentration found to suppress growth) in data set [1] was 3000 µg/mL (≈ 19.5 mM); in data set [4], 2000 µg/mL (≈ 13 mM). Also, the “CUPRAC assay: Trolox equivalent” value in data set [2] was found to be 60.53 µM. Besides, the figures for the pKaexp. in data set [3] (at 25 °C), in [3] (ref 104) and in data set [3] (ref 105) were 4.26, 4.48 and 4.16, respectively. The “degree of Trolox oxidation” value in data set [5] was 8.44%. Further, in data set [6], the “HepG2 cells' viability” value is 40%. The inhibition was ~70% in data set [7] (setting [14]) and ~88.5% in data set [7] (setting [15]). The concentration for half-maximal inhibition (IC50) – broadly, the concentration that gives 50% inhibition – in data set [7] (CDPPH = 50 μM, t = 30 min, read-out: DPPH, IC50) is 3.83 µM; in [7] (setting [16]), 15.8 µM; in [7] (setting [17]) it was 0.0574 µM. The FRAP result in data set [8] (setting [18]) was “≈ 0.65 (C = 0,001 mg/mL), λ = 593 nm, t = 30 min) [73] μM Fe^2+”. The log kw in data set [9] (C8 column) is listed as 1.00; in data set [9] (C18 column) it was 2.32; in data set [9] (CN column) it was 1.58; in [9] (IAM column), 0.44; in data set [9] (PHE column), 1.07. Besides, the ϕ0 in [9] (C8 column) is listed as 0.83; in data set [9] (C18 column) it was 0.45; in data set [9] (CN column) it was 1.08; in [9] (IAM column) it was 1.13; in data set [9] (PHE column) it was 0.50.

Consider `O=C(O)c1cc(O)cc(O)c1` [3,5-DHB, 3,5-dihydroxybenzoic acid], for which the values for the pKaexp. in data set [3] (ref 104), in data set [3] (ref 105) and in data set [3] (ref 108) were 4.04, 3.61 and 4.04, respectively. For the same compound, the “degree of Trolox oxidation” value in [5] amounted to 8.03%. In addition, the IC50 in data set [7] (setting [19]) was 385 µM. Further, the FRAP entry in [8] (setting [18]) was “≈ 0.03 (C = 0,001 mg/mL), λ = 593 nm, t = 30 min) [73] μM Fe^2+”. The log kw was 0.90 in [9] (C8 column); 2.56 in [9] (C18 column); 1.78 in [9] (CN column); 0.51 in [9] (IAM column); 1.03 in [9] (PHE column). In addition, the ϕ0 worked out at 0.83 in data set [9] (C8 column); 0.45 in data set [9] (C18 column); 1.07 in [9] (CN column); 1.16 in [9] (IAM column); 0.55 in data set [9] (PHE column).

For the compound `O=C(O)c1cc(O)ccc1O` [2,5-DHB, 2,5-dihydroxybenzoic acid], in data set [2], the “CUPRAC assay: Trolox equivalent” value was found to be 68.77 µM. Moreover, the “inhibition of spore germination and mycelial growth” value in data set [10] was “completely inhibited”. For the same compound, the IC50 was 6.3 µM in data set [7] (setting [16]); 4.95 µM in [7] (CDPPH = 60 μM, t = 60 min, read-out: DPPH, IC50); 37 µM in data set [7] (setting [19]); 0.0292 µM in data set [7] (setting [17]). The “concentration that inhibited colony formation” value in the data set with MDA-MB-231 cells [11] is 100 µM. The FRAP in data set [8] (C = 5 μM, λ = 594 nm, t = n.d.) was 75.39 (C = 5 μM, λ = 594 nm, t = n.d.) [62] μM Fe^2+; in data set [8] (C = 50 μM, λ = 594 nm, t = n.d.), 236.86 (C = 50 μM, λ = 594 nm, t = n.d.) [62] μM Fe^2+; in data set [8] (setting [18]), “≈ 0.98 (C = 0,001 mg/mL), λ = 593 nm, t = 30 min) [73] μM Fe^2+”. Further, the MIC in [12] was 2500 µM (≈ 385 µg/mL).

Consider `O=C(O)c1cc(O)c(O)c(O)c1` [3,4,5-THB, 3,4,5-trihydroxybenzoic acid], for which, in [2], the “CUPRAC assay: Trolox equivalent” value worked out at 73.85 µM. In the data set on A2780 cancer cells, the “IC50, A2780 cancer cells” value is 45.25 µg/mL (≈ 0.266 mM). The pKaexp. was 4.41 in data set [3] (ref 104), 3.94 in data set [3] (ref 105) and 4.40 in data set [3] (ref 110). The 50% inhibitory concentration (IC50) was ~150 µM with MDA-MB-231 cells [13]; 0.0237 µM in data set [7] (setting [17]); 4.2 µM in data set [7] (after 30 min of incubation with a free radical, read-out: DPPH IC50). The inhibition in [7] (setting [14]) is ~70%; in data set [7] (setting [15]) it was 88.5%; in data set [7] (C ≈ 0.7 mM, CDPPH = 200 μM, t = 30 min), 40%. The “cell proliferation of MCF-7, % of control” value with MCF-7 (5 μg/mL) is given as 42.73 % of control. In the data set on MCF-7, the “concentration inhibiting 50% of MCF-7 cancer cells” value was 7.5 µg/mL. Also, the FRAP result in data set [8] (setting [18]) was “≈ 1.03 (C = 0,001 mg/mL), λ = 593 nm, t = 30 min) [73] μM Fe^2+”. For the same compound, the log kw in data set [9] (C8 column) came to 0.50; in data set [9] (C18 column), 1.91; in data set [9] (CN column) it was 1.24; in data set [9] (IAM column), 0.15; in data set [9] (PHE column), 0.83. In addition, the ϕ0 is 0.91 in data set [9] (C8 column); 0.37 in [9] (C18 column); 1.06 in [9] (CN column); 1.44 in data set [9] (IAM column); 0.33 in [9] (PHE column).

In the case of `O=C(O)c1c(O)cccc1O` [2,6-DHB, 2,6-dihydroxybenzoic acid], the results for the pKaexp. in data set [3] (ref 104) and in data set [3] (ref 105) were 1.30 and 1.51, respectively. Further, in data set [5], the “degree of Trolox oxidation” value turned out to be 9.52%. Moreover, in data set [7] (CDPPH = 500 μM, t = 30 min, read-out: DPPH, IC50), the IC50 is 232 µM. The log kw in data set [9] (C8 column) is 1.17; in data set [9] (C18 column), 2.99; in [9] (CN column), 1.49; in data set [9] (IAM column) it was 1.31; in data set [9] (PHE column), 0.87. Further, the ϕ0 is listed as 1.05 in data set [9] (C8 column); 0.68 in [9] (C18 column); 1.08 in data set [9] (CN column); 1.14 in [9] (IAM column); 1.05 in [9] (PHE column).
